Here are results for six molecules from EP4011354A1, “NEW COSMETICS SOLVENTS BASED ON TWO DIFFERENT COMPONENTS” (priority 2020, dated 2022).

The nature of data set [1]: Solubility of actives in water and in eutectic solvents. The class given is physicochemical. The settings on record: for solubility: water. From the text:
Following is shown some examples for actives solubilization: • Dihydromyricetin • ∘ Solubility in Water 0.09% wt. • ∘ Solubility in Betaine:Urea 2:3 > 0.5% wt • ∘ Solubility in Betaine:Glucose 1:1 > 0.5% wt • ∘ Solubility in Betaine:Malic Acid 1:1 > 0.5% wt • ∘ Solubility in Proline:Sorbitol 1:1 > 0.5% wt • ∘ • Folic Acid • ∘ Solubility in Water 0.00016% wt. • ∘ Solubility in Betaine:Glycerol 1:3 > 1% wt • Thiamidol • ∘ Solubility in Water 0.017% wt. • ∘ Solubility in Betaine:Glycerol 1:3 > 2% wt

The nature of data set [2]: Liberation of actives and dermal penetration (pig-skin penetration test). Particulars: 0,5% solution in betaine : malic acid (1:1 + 20% water; NADES). As to the method: Actives liberation and dermal penetration behavior were evaluated for a 0,5% caffeine solution in an inventive eutectic solvent, betaine : malic acid (1:1 + 20% water; NADES).
Data set [3] in a line: In vivo sweat reduction test. The settings on record: Betaine-Glycerine (molar ratios 1:3), 10,5 wt.% calcium lactate, 37,5 wt.% water (figure 2).
Data set [4] can be described thus: Stability of 5 % vitamin C solutions in eutectic solvents versus water. The class given is physicochemical. The settings on record: 40 degrees, after 16 weeks.

The structures appear in SMILES notation. Converted amounts (≈) assume the structure as drawn. Read-outs that look alike come from different tables or passages of the source.

`O=C1c2c(O)cc(O)cc2O[C@H](c2cc(O)c(O)c(O)c2)[C@H]1O` [Dihydromyricetin]: in data set [1], the “Solubility in Betaine:Glucose 1:1” value is over 0.5 % wt, the “Solubility in Betaine:Malic Acid 1:1” value is recorded as over 0.5 % wt, the “Solubility in Betaine:Urea 2:3” value is listed as over 0.5 % wt and the “Solubility in Proline:Sorbitol 1:1” value is reported as over 0.5 % wt. The solubility (as a rule, the dissolved amount per volume that the medium holds) in data set [1] came out at 900 µg/mL (≈ 2810 µM).

Take `Nc1nc2ncc(CNc3ccc(C(=O)N[C@@H](CCC(=O)O)C(=O)O)cc3)nc2c(=O)[nH]1` [Folic Acid]: the “Solubility in Betaine:Glycerol 1:3” value in data set [1] is listed as over 1 % wt. The solubility in data set [1] (read-out: Solubility in Water) stood at 1.6 µg/mL (≈ 3.62 µM).

Consider `CC(C)C(=O)Nc1nc(-c2ccc(O)cc2O)cs1` [Thiamidol, Isobutylamido Thiazolyl Resorcinol], for which the “Solubility in Betaine:Glycerol 1:3” value in data set [1] is over 2 % wt. Further, in data set [1] (read-out: Solubility in Water), the solubility stood at 170 µg/mL (≈ 611 µM).

With `Cn1c(=O)c2c(ncn2C)n(C)c1=O` [caffeine], the dermal absorption result in data set [2] (compared to the water solution) is listed as “lower”. Besides, in data set [2] (compared to the water solution (figure 4)), the liberation over time result was “surprisingly lower”.

Regarding `CC(O)C(=O)O` (centres unmarked) [calcium lactate], in data set [3], the sweat reduction entry is on record as “sweat reduction”.

On to `O=C1O[C@H]([C@@H](O)CO)C(O)=C1O` [vitamin C, ascorbic acid], for which the remaining at 2688 h in data set [4] (in the eutectic solvents (table 1, B-F), read-out: active still intact) was at most 82%; in data set [4] (water, aqueous solution, read-out: initial vitamin C still measurable), 10%.
